# In the supplement of paper PMC13380429:
# How the values were obtained:
# Conditions in all cases: 72 h
# Caco-2 [1] = test: cell viability relative to DMSO; higher = less toxic
# Calu-3 [2] = test: as above
# HepG2 [3] = test: as above
# U2OS [4] = test: as above
# Vero E6 [5] = test: as above
# Caco-2 [6] = test: relative viability EC50 (midpoint between 100% and the lowest measured viability); higher = less toxic
# Calu-3 [7] = test: as above
# HepG2 [8] = test: as above
# U2OS [9] = test: as above
# Vero E6 [10] = test: as above
# Caco-2 [11] = test: drug sensitivity score (DSS) for viability; higher = more toxic; extreme values may be limits of the assay
# Calu-3 [12] = test: as above
# HepG2 [13] = test: as above
# U2OS [14] = test: as above
# Vero E6 [15] = test: as above
Structure (SMILES),cell viability (Caco-2 [1]; 1 nM) [%],cell viability (Caco-2 [1]; 10 nM) [%],cell viability (Caco-2 [1]; 100 nM) [%],cell viability (Caco-2 [1]; 1000 nM) [%],cell viability (Caco-2 [1]; 10000 nM) [%],cell viability (Calu-3 [2]; 1 nM) [%],cell viability (Calu-3 [2]; 10 nM) [%],cell viability (Calu-3 [2]; 100 nM) [%],cell viability (Calu-3 [2]; 1000 nM) [%],cell viability (Calu-3 [2]; 10000 nM) [%],cell viability (HepG2 [3]; 1 nM) [%],cell viability (HepG2 [3]; 10 nM) [%],cell viability (HepG2 [3]; 100 nM) [%],cell viability (HepG2 [3]; 1000 nM) [%],cell viability (HepG2 [3]; 10000 nM) [%],cell viability (U2OS [4]; 1 nM) [%],cell viability (U2OS [4]; 10 nM) [%],cell viability (U2OS [4]; 100 nM) [%],cell viability (U2OS [4]; 1000 nM) [%],cell viability (U2OS [4]; 10000 nM) [%],cell viability (Vero E6 [5]; 1 nM) [%],cell viability (Vero E6 [5]; 10 nM) [%],cell viability (Vero E6 [5]; 100 nM) [%],cell viability (Vero E6 [5]; 1000 nM) [%],cell viability (Vero E6 [5]; 10000 nM) [%],relative viability EC50 (Caco-2 [6]) [µM],relative viability EC50 (Calu-3 [7]) [µM],relative viability EC50 (HepG2 [8]) [µM],relative viability EC50 (U2OS [9]) [µM],relative viability EC50 (Vero E6 [10]) [µM],drug sensitivity score (Caco-2 [11]),drug sensitivity score (Calu-3 [12]),drug sensitivity score (HepG2 [13]),drug sensitivity score (U2OS [14]),drug sensitivity score (Vero E6 [15])
O=[N+]([O-])c1cccc2cn[nH]c12 [7-nitroindazole],100,94.4,97.1,106,97.8,102,101,99.4,97.6,93.4,102,96.3,88.2,99.2,98.1,99.7,102,99.8,104,97.9,103,96.5,99.6,98.7,98.7,> 10,> 10,> 10,> 10,> 10,0,0,0,0,0
Nc1ncnc2c1nc(Br)n2[C@@H]1O[C@@H]2COP(=O)(O)O[C@H]2[C@H]1O [8-bromo-cAMP],106,95.8,97.8,98.5,81.5,92.8,104,95.9,103,95.8,95.2,96.5,93.1,98.2,85.7,102,96.8,105,99,102,100,102,103,102,96,> 10,> 10,> 10,> 10,> 10,0.7,0,0,0,0
Cc1c(C(=O)NN2CCOCC2)nn(-c2ccc(Cl)cc2Cl)c1-c1ccc(I)cc1 [AM-281],96.8,100,96.2,96.2,107,102,113,104,94.5,88.1,105,95.7,102,101,103,96.9,101,95.5,100,100,98.3,96.6,98.4,94.5,106,> 10,> 10,> 10,> 10,> 10,0,0.2,0,0,0
C[C@H]1CC[C@H](n2c3cnccc3c3cnc(Nc4ccc5c(n4)CCN(C(=O)CO)C5)nc32)CC1 [AMG-925],112,95.5,96.4,95.3,91.3,95.1,109,100,109,93,105,90.3,113,100,101,98.8,100,97.1,99.4,96.7,99.6,92.8,96.1,95.9,104,> 10,> 10,> 10,> 10,> 10,0,0,0,0,0
Cc1ccc(S(=O)(=O)NCc2ccccc2)cc1 [BTS],95.1,99.3,101,90,99.9,98.1,100,106,102,112,102,110,95.3,110,107,96.7,97.4,107,98,102,104,101,91.7,95.9,93.4,> 10,> 10,> 10,> 10,> 10,0,0,0,0,0
CC(C)(C)NC(=O)N[C@H](C(=O)N1C[C@H]2[C@@H]([C@H]1C(=O)NC(CC1CCC1)C(=O)C(N)=O)C2(C)C)C(C)(C)C (stereo not given in full) [Boceprevir],103,94.4,108,92.5,105,102,95.1,95.7,100,102,102,102,95.6,100,105,102,93.7,100,96.1,91.6,102,100,102,92.7,99.9,> 10,> 10,> 10,> 10,> 10,0,0,0,0,0
C[C@H]1CCc2c(cc(Br)c(F)c2Br)N1C=O [CE3F4],105,99.9,91.9,104,88.8,105,102,89.6,93.7,90,110,99.2,113,100,103,98.3,101,99.6,102,96.1,103,101,98.2,93.8,102,> 10,> 10,> 10,> 10,> 10,0,0.2,0,0,0
